Measurements reported in the supplement of paper PMC4862054.
“And” between values parts separate entries of the source, which are not always exact repeats. Equal entries are not always repeated.

What was measured:
Conditions in all cases: incubation time: 72 h
HCC1937 [1] = assay: normalised viability (% of control), CellTiter-Blue; higher = more viable cells (100 = DMSO, 0 = benzethonium chloride kill control)
Protocol: (§1)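 DSRT, CellTiter-Blue viability, 72 h incubation. Signal is normalised to DMSO and benzethonium chloride controls. Value is the normalised response at dose 1.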

CAL-148 = assay: as above
Protocol: as §1

MDA-MB-453 = assay: as above
Protocol: as §1

Hs578T [2] = assay: as above
Protocol: as §1

BT-474 = assay: as above
Protocol: as §1

HCC1599 = assay: as above
Protocol: as §1

HDQ-P1 = assay: as above
Protocol: as §1

DU-4475 [3] = assay: as above
Protocol: as §1

MDA-MB-231 [4] = assay: as above
Protocol: as §1

CAL-120 = assay: as above
Protocol: as §1

CAL-51 [5] = assay: as above
Protocol: as §1

MDA-MB-468 [6] = assay: as above
Protocol: as §1

MFM-223 [7] = assay: as above
Protocol: as §1

MDA-MB-436 [8] = assay: as above
Protocol: as §1

BT-549 = assay: as above
Protocol: as §1

HCC1143 [9] = assay: as above
Protocol: as §1

SK-BR-3 = assay: as above
Protocol: as §1

CAL-85-1 = assay: as above
Protocol: as §1

HCC1937 [10] = assay: normalised viability (% of control), CellTiter-Blue; higher = more viable cells (about 100 = DMSO control)
How it was run: (§2)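 Breast cancer cell lines in 20 µl suspension were seeded onto 384-well plates pre-loaded with compound dissolved in 5 µl medium, then incubated 72 h. CellTiter-Blue reagent (2.5 µl) was added for 2 h at 37 °C and fluorescence read at 560/590 nm. Each plate was normalised to vehicle (100) and a positive kill control (0), with Z'-factor quality control. The value is normalised viability at one listed concentration of the series.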

Hs578T [11] = assay: as above
How it was run: as §2

DU-4475 [12] = assay: as above
How it was run: as §2

MDA-MB-231 [13] = assay: as above
How it was run: as §2

CAL-51 [14] = assay: as above
How it was run: as §2

MDA-MB-468 [15] = assay: as above
How it was run: as §2

MFM-223 [16] = assay: as above
How it was run: as §2

MDA-MB-436 [17] = assay: as above
How it was run: as §2

HCC1143 [18] = assay: as above
How it was run: as §2

Nc1cccc2c1CN(C1CCC(=O)NC1=O)C2=O (stereo not given) [Lenalidomide]
Conditions | normalised viability
BT-474, 1 nM | 93.9% and 73.5%
BT-549, 1 nM | 108% and 115%
CAL-51 [5], 1 nM | 104% and 105%
CAL-51 [14], 3 nM | 106% and 108%
CAL-51 [14], 30 nM | 99.4% and 99.6%
CAL-51 [14], 100 nM | 99.9% and 97.6%
CAL-85-1, 1 nM | 79.2% and 80.7%
CAL-120, 1 nM | 76.8% and 81.8%
CAL-148, 1 nM | 92.4% and 102%
DU-4475 [3], 1 nM | 99% and 102%
DU-4475 [12], 3 nM | 92.4% and 107%
DU-4475 [12], 30 nM | 89.8% and 80.5%
DU-4475 [12], 100 nM | 94.3% and 93.8%
HCC1143 [9], 1 nM | 85.5% and 80.6%
HCC1143 [18], 10 nM | 76.4% and 66.6%
HCC1143 [18], 1000 nM | 89.1% and 70%
HCC1143 [18], 10000 nM | 72% and 72.4%
HCC1599, 1 nM | 92.1% and 98.5%
HCC1937 [1], 1 nM | 90.1% and 78%
HCC1937 [10], 10 nM | 92.3% and 85.5%
HCC1937 [10], 1000 nM | 86.2% and 84.6%
HCC1937 [10], 10000 nM | 78.2% and 87.7%
HDQ-P1, 1 nM | 86.6% and 103%
Hs578T [2], 1 nM | 97.1% and 106%
Hs578T [11], 10 nM | 107% and 99.5%
Hs578T [11], 1000 nM | 111% and 97.7%
Hs578T [11], 10000 nM | 100% and 95.5%
MDA-MB-231 [4], 1 nM | 85.2% and 82.6%
MDA-MB-231 [13], 10 nM | 89% and 86.3%
MDA-MB-231 [13], 1000 nM | 79.1% and 103%
MDA-MB-231 [13], 10000 nM | 92.3% and 103%
MDA-MB-436 [8], 1 nM | 97.6% and 82.2%
MDA-MB-436 [17], 10 nM | 98.1% and 99.7%
MDA-MB-436 [17], 1000 nM | 85% and 101%
MDA-MB-436 [17], 10000 nM | 107% and 112%
MDA-MB-453, 1 nM | 87.5% and 104%
MDA-MB-468 [6], 1 nM | 99.6% and 98.9%
MDA-MB-468 [15], 10 nM | 103% and 111%
MDA-MB-468 [15], 1000 nM | 105% and 99.7%
MDA-MB-468 [15], 10000 nM | 93.5% and 106%
MFM-223 [7], 1 nM | 89.4% and 94.1%
MFM-223 [16], 10 nM | 87.7% and 85.8%
MFM-223 [16], 1000 nM | 90.2% and 96.7%
MFM-223 [16], 10000 nM | 100% and 104%
SK-BR-3, 1 nM | 94.7% and 87.4%

C[C@]12O[C@H](C[C@]1(O)CO)n1c3ccccc3c3c4c(c5c6ccccc6n2c5c31)CNC4=O [Lestaurtinib]
Conditions | normalised viability [%]
BT-474, 0.1 nM | 100
BT-549, 0.1 nM | 120
CAL-51 [5], 0.1 nM | 115
CAL-51 [14], 0.3 nM | 113
CAL-51 [14], 3 nM | 108
CAL-51 [14], 10 nM | 106
CAL-85-1, 0.1 nM | 100
CAL-120, 0.1 nM | 101
CAL-148, 0.1 nM | 118
DU-4475 [3], 0.1 nM | 110
DU-4475 [12], 0.3 nM | 93.2
DU-4475 [12], 3 nM | 104
DU-4475 [12], 10 nM | 100
HCC1143 [9], 0.1 nM | 107
HCC1143 [18], 1 nM | 107
HCC1143 [18], 100 nM | 89.8
HCC1143 [18], 1000 nM | 61.6
HCC1599, 0.1 nM | 109
HCC1937 [1], 0.1 nM | 96.4
HCC1937 [10], 1 nM | 89
HCC1937 [10], 100 nM | 77.4
HCC1937 [10], 1000 nM | 31.3
HDQ-P1, 0.1 nM | 113
Hs578T [2], 0.1 nM | 118
Hs578T [11], 1 nM | 110
Hs578T [11], 100 nM | 122
Hs578T [11], 1000 nM | 63.3
MDA-MB-231 [4], 0.1 nM | 115
MDA-MB-231 [13], 1 nM | 112
MDA-MB-231 [13], 100 nM | 104
MDA-MB-231 [13], 1000 nM | 62.6
MDA-MB-436 [8], 0.1 nM | 126
MDA-MB-436 [17], 1 nM | 102
MDA-MB-436 [17], 100 nM | 93.4
MDA-MB-436 [17], 1000 nM | 55.5
MDA-MB-453, 0.1 nM | 113
MDA-MB-468 [6], 0.1 nM | 126
MDA-MB-468 [15], 1 nM | 107
MDA-MB-468 [15], 100 nM | 106
MDA-MB-468 [15], 1000 nM | 51
MFM-223 [7], 0.1 nM | 107
MFM-223 [16], 1 nM | 97.6
MFM-223 [16], 100 nM | 80.9
MFM-223 [16], 1000 nM | 42.8
SK-BR-3, 0.1 nM | 97.7

O=C1c2c(O)ccc(O)c2C(=O)c2c(NCCNCCO)ccc(NCCNCCO)c21 [Mitoxantrone]
Conditions | normalised viability [%]
BT-474, 0.1 nM | 75.9
BT-549, 0.1 nM | 90.5
CAL-51 [5], 0.1 nM | 109
CAL-51 [14], 0.3 nM | 112
CAL-51 [14], 3 nM | 111
CAL-51 [14], 10 nM | 61.3
CAL-85-1, 0.1 nM | 80.5
CAL-120, 0.1 nM | 74.6
CAL-148, 0.1 nM | 108
DU-4475 [3], 0.1 nM | 102
DU-4475 [12], 0.3 nM | 89
DU-4475 [12], 3 nM | 91.3
DU-4475 [12], 10 nM | 45.8
HCC1143 [9], 0.1 nM | 79.2
HCC1143 [18], 1 nM | 83.4
HCC1143 [18], 100 nM | 56.6
HCC1143 [18], 1000 nM | 31.2
HCC1599, 0.1 nM | 92.1
HCC1937 [1], 0.1 nM | 92.5
HCC1937 [10], 1 nM | 65.7
HCC1937 [10], 100 nM | 25
HCC1937 [10], 1000 nM | 23.7
HDQ-P1, 0.1 nM | 101
Hs578T [2], 0.1 nM | 93.6
Hs578T [11], 1 nM | 91.6
Hs578T [11], 100 nM | 77.5
Hs578T [11], 1000 nM | 38.4
MDA-MB-231 [4], 0.1 nM | 87.4
MDA-MB-231 [13], 1 nM | 82
MDA-MB-231 [13], 100 nM | 44.2
MDA-MB-231 [13], 1000 nM | 17.4
MDA-MB-436 [8], 0.1 nM | 121
MDA-MB-436 [17], 1 nM | 87.2
MDA-MB-436 [17], 100 nM | 88.3
MDA-MB-436 [17], 1000 nM | 40.1
MDA-MB-453, 0.1 nM | 90.6
MDA-MB-468 [6], 0.1 nM | 90.7
MDA-MB-468 [15], 1 nM | 97.1
MDA-MB-468 [15], 100 nM | 57.3
MDA-MB-468 [15], 1000 nM | 37.4
MFM-223 [7], 0.1 nM | 84.2
MFM-223 [16], 1 nM | 73.8
MFM-223 [16], 100 nM | 84.4
MFM-223 [16], 1000 nM | 35.2
SK-BR-3, 0.1 nM | 108
